What was measured:
[1] = tested on: homozygous PPO2_F4201 sunflower (HA452-M); test: Greenhouse PPO cross-tolerance trial, mutant (Example 7); assay type: in vivo
Description: In August of 2021, a greenhouse herbicide trial was carried out in Zwijnaarde, Belgium. A homozygous PPO2_F4201 sunflower seed lot (HA452-M), and a wild type (WT) sunflower line (RHA473) were used in the greenhouse trial. Sixteen homozygous PPO2_F4201 mutant plants and six WT plants were sown and treated with each herbicide. […]

[2] = tested on: PPO2_F420I Mutant sunflower; test: Field PPO cross-tolerance trial, mutant (Example 8); assay type: in vivo; conditions: for Phytotoxicity (%) PPO2_F420I Mutant 6DAT / Phytotoxicity (%) PPO2_F420I Mutant 11DAT / Phytotoxicity (%) PPO2_F420I Mutant 14DAT: MSO 1% v/v
Description: A field trial was carried out to assess PPO cross-tolerance in non-introgressed, selfed, homozygous PPO2_F4201 mutants, as well as to assess tolerance differences using increasing rates of herbicides listed in Table 5. The field trial was done in Utrera, Spain, in September of 2021.
Herbicide treatments (Table 5) were applied in the field when plants had the BBCH12-14 growth stage (2-4 leaves). The field trial design was the randomized complete block design, and 1 replication was considered due to limitation in seed availability. Two entries were used in the field trial, the WT line and the PPO2_F4201 mutant. The experimental plot consisted of 1 entry per plot and 1 row per entry.
Phytotoxicity of mutant and WT entries was recorded over time, at 6, 11 and 14 DAT, where 100% phytotoxicity indicates complete control (dead plants), and 0% phytotoxicity indicates no control or alive plants without any herbicide injury.

[3] = target: PPO2_F383I mutant PPO2 enzyme (Helianthus annuus, UniProt A0A251TWC2, F383I); test: In vitro PPO inhibition assay, mutant enzyme (Example 5); assay type: biochemical, sunflower
Excerpt: (§1) To test whether the PPO2_F383I is the main cause of the observed saflufenacil tolerance, we used an in vitro to compare the inhibition potency (IC50) of different PPO inhibiting herbicides between wild-type and mutant PPO2 enzyme. The in vitro assay assesses the oxidation of protoporphyrinogen IX to protoporphyrin IX, catalyzed by the PPO enzyme. Both the wild type and mutant PPO2 proteins were heterologously expressed in E. coli and purified. Purified protein was mixed with different concentrations of the herbicide ranging from 10^−5M to 10^−11M and protein activity was measured. Protein activity is defined as the fluorescence per minute that the reaction generates. In the reaction, the purified PPO enzyme is mixed with substrate protoporphyrinogen IX and the herbicide. The product of the reaction is excited at 405 nm and produces a fluorescence at 630 nm which we detect. IC50 (in Mol) and tolerance factor were calculated.

[4] = tested on: PPO2_F383I mutant PPO2 enzyme; test: as above; assay type: biochemical, sunflower; conditions: PPO2_F383I versus wild type IC50
Excerpt: as §1

[5] = tested on: conventional sunflowers (Edison, ES Coloris Clearfield, inbred line HA452); test: Field trials of sunflower sensitivity to saflufenacil (Example 1); assay type: in vivo, Helianthus annuus
Description: Research was conducted to evaluate the sensitivity of sunflower to the herbicide comprising the active ingredient (AI) saflufenacil (Trade name: Kixor™). The herbicide was applied in 2 field trials at different rates ranging from 0.91 g to 14 g a.i./ha (with 0.5-1% MSO-methylated seed oil-adjuvant) to 2 commercial sunflower varieties [a) a conventional (non-herbicide tolerant) sunflower (“Edison”) which is a linoleic oil-type sunflower, and b) a herbicide tolerant sunflower (“ES Coloris Clearfield which is a linoleic oil-type sunflower] and a public inbred line HA452, from the USDA (United States Department of Agriculture) National Plant Germplasm System (NPGS), deposited under Accession No. PI 642771. The treated plants were at the 2-to-4 leaf-stage (BBCH12-14). Trials were set up in a randomized complete block design with 3 replications and rated for herbicide phytotoxicity (percentage damage) 3, 7, 10 and 14 days after treatment (see also Example 4 for more details). Herbicide phytotoxicity ranges from 0% phytotoxicity (full tolerance) to 100% phytotoxicity (full susceptibility or absence of tolerance).
Full control of all sunflower materials was even observed at the first phytotoxicity evaluation time point, 3 days after treatment (DAT) with saflufenacil (results not shown).
The second field trial (trial 2) compared the adjuvant MSO at two concentrations: 1% v/v, concentration used by the farmer and 0.5%, half the concentration (FIG. 2). With the MSO concentration of 0.5% v/v, which lowers the general herbicidal efficacy of saflufenacil in weeds, control of all sunflower materials was around 80% at the lowest rate of saflufenacil (0.91 g a.i./ha) and 100% at 1.75 g a.i./ha and higher (FIG. 2).

wild-type PPO2 enzyme = wild-type PPO2 enzyme (Helianthus annuus, UniProt A0A251TWC2); test: In vitro PPO inhibition assay, wild type enzyme (Example 5); assay type: biochemical, sunflower
Excerpt: as §1

PPO2_F383I mutant lines = test: Advanced field trial with saflufenacil, Utrera 2021 (Example 4); assay type: in vivo, Helianthus annuus
Description: M6 seed of eleven lines all originating from the nine plants carrying the PPO2_F383I mutation but with a different pedigree were assessed in an advanced field trial. The advanced field trial was manually planted in Utrera, Spain, on May 3, 2021. One row per mutant entry per plot was considered, and thirty-two seeds were planted per mutant entry per row per plot. Saflufenacil was applied in four increasing rates (0×: 0 g a.i/ha, 0.5×=12.5 g a.i./ha; 1×=25 g a.i./ha and 2×=50 g a.i./ha) when plants were at the BBCH12-14 growth stage. Saflufenacil application took place on Jul. 26, 2021. The field trial design was a strip-block design with four replications.
Phytotoxicity evaluations were done at 2, 5, 12, 19 and 26 days after treatment (DAT) with saflufenacil. As discussed previously, phytotoxicity of the mutant entries and wild type control were scored in each of the evaluation days after saflufenacil treatment. Eleven mutant lines were tested. The field tested one mutant line per row 32 seeds per row, for each saflufenacil rate treatment and replication, this means every plot was made of a single row, so the plot was the row for each mutant line. The phytotoxicity % score was given for each row in comparison to the untreated row of the same mutant line (control), meaning all 11 mutant lines were assessed for phytotoxicity % in all treatments and replications. Phytotoxicity was visually recorded at each evaluation time after saflufenacil application on a per plot basis based on the rating scale table (below).
To better reflect the tolerance of surviving plants, data were expressed in percent herbicide tolerance efficacy by using the formula below:
where: • 0% means no tolerance • 100% means full tolerance

Sequence of PPO2_F383I mutant PPO2 enzyme (Helianthus annuus, UniProt A0A251TWC2, F383I) (A0A251TWC2 entry or part of it F383I): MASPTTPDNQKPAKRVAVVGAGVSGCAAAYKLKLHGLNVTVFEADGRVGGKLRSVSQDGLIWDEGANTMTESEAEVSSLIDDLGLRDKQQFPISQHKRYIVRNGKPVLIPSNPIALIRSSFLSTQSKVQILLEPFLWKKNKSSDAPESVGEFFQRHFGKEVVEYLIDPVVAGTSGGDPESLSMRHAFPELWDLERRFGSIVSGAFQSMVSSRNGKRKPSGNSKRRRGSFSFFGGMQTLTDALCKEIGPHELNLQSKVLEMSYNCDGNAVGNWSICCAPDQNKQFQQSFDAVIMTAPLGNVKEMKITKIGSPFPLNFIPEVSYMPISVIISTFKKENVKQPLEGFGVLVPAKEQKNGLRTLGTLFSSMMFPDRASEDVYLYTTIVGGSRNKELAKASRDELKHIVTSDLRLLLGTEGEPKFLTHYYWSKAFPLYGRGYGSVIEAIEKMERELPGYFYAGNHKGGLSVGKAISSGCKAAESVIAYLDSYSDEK
Sequence of wild-type PPO2 enzyme (A0A251TWC2 entry or part of it): as the sequence (A0A251TWC2 entry or part of it F383I) above, with I383F counted along it

CC(C)N(C)S(=O)(=O)NC(=O)c1cc(-n2c(=O)cc(C(F)(F)F)n(C)c2=O)c(F)cc1Cl [Saflufenacil]
recovery of PPO2_F4201 plants after early phytotoxicity at 4 DAT ([1]; 10 DAT): consistent survival and recovery
survival of PPO2_F4201 plants ([1]; all rates tested, MSO 1% v/v): survived at all rates
Phytotoxicity (%) PPO2_F420I Mutant 6DAT ([2]; 3.125 g a.i./ha): 40%
Phytotoxicity (%) PPO2_F420I Mutant 11DAT ([2]; 3.125 g a.i./ha): 35%
Phytotoxicity (%) PPO2_F420I Mutant 14DAT ([2]; 3.125 g a.i./ha): 35%
Phytotoxicity (%) PPO2_F420I Mutant 6DAT ([2]; 6.25 g a.i./ha): 45%
Phytotoxicity (%) PPO2_F420I Mutant 11DAT ([2]; 6.25 g a.i./ha): 40%
Phytotoxicity (%) PPO2_F420I Mutant 14DAT ([2]; 6.25 g a.i./ha): 40%
survival of the PPO2_F4201 mutant ([2]; all rates of saflufenacil): survives
maximum phytotoxicity in the PPO2_F4201 mutants ([2]; at 11 and 14 DAT): 40%
IC50 ([3]; IC50 for PPO2_F383I): 4.36 µM
IC50 ([3]; PPO2_F383I IC50, purified enzyme expressed in E. coli, herbicide 10^-5 M to 10^-11 M): 4.23 µM
Tolerance factor [4]: 2897
phytotoxicity ([5]; 0.91 g a.i./ha, 1% v/v MSO): 100%
control of sunflower materials ([5]; 1% MSO v/v, all applied rates (0.91 to 14 g a.i./ha), field trial 2): total control
control of all sunflower materials ([5]; 1.75 g a.i./ha and higher, MSO 0.5% v/v, field trial 2): 100%
control of all sunflower materials ([5]; field trial 1, 3 days after treatment): Full control
control of all three sunflower materials ([5]; field trial 1, lowest saflufenacil rate, after 14 days): completed controlled
IC50 (wild-type PPO2 enzyme): 0.00146 µM
survival and seed production (PPO2_F383I mutant lines; 50 g a.i./ha in the field): survive and produce seeds
impact on days to 50% flowering versus untreated (PPO2_F383I mutant lines; across entries and saflufenacil rates): ≤ 5 days
tolerance efficacy (%) (PPO2_F383I mutant lines; all eleven mutant lines, all rates (12.5, 25, 50 g a.i./ha)): high tolerance efficacy
plant recovery (PPO2_F383I mutant lines; all rates including 2x (50 g a.i./ha)): start to significantly recover at 19 DAT
phytotoxicity at peak, compared to untreated controls (PPO2_F383I mutant lines; eleven mutant entries, field, 12.5, 25 and 50 g a.i./ha): higher than 15%
plant height, treated versus untreated (PPO2_F383I mutant lines; when flowering was completed, 73 DAT): untreated plants showed a greater plant height compared to treated plants

Source: patent US20250000043A1, “NON-TRANSGENIC SUNFLOWER PLANTS HAVING INCREASED TOLERANCE TO HERBICIDES” (BASF Agricultural Solutions Seed US LLC, priority 2021, published 2025)
